As a reminder, the pIC50 is −log10 of the IC50, conventionally taken in molar units. A low value points to a high IC50.

Data on 25 compounds can be found in BindingDB's records for patent US20250034165 (Chia Tai Tianqing Pharmaceutical Group, 2025).

pIC50: −log10 of the molar value.

Assay [1] has as its target Epidermal growth factor receptor (EGFR)(L858R)(T790M) (Homo sapiens, UniProt P00533, L858R/T790M). The assay can be described thus: Inhibitory Activity for EGFR (L858R/T790M) Kinase. The method, then: (§1) A 50 ng/μL EGFR (L858R/T790M, Carna) stock solution was diluted with a kinase buffer (50 mM HEPES, 10 mM MgCl2, 2 mM DTT, 1 mM EGTA, 0.01% Tween 20), and 6 μL of 1.67× working solution at 0.004175 ng/μL (final concentration: 0.0025 ng/μL) was added to each well. Different compounds dissolved in DMSO were added to wells using a nanoliter pipettor, resulting in the final concentrations of the compounds of 10 nM to 0.0024 nM (4-fold gradient, 7 concentrations in total), and blank control wells (without enzyme) and negative control wells (with enzyme, plus vehicle DMSO) were set, 2 replicate wells for each concentration. After enzyme was reacted with the compound or vehicle for 30 min, 5×ATP at 25 μM (final concentration: 5 μM, Sigma) prepared with a kinase buffer was mixed with 5× substrate at 0.5 μM (final concentration: 0.1 μM, ULight-poly GT, PerkinElmer) at a ratio of 1:1 (v:v), and the mixture was added to each well at 4 μL/well. After being sealed with a film, the plate was incubated at room temperature for 2 h, and then 5 μL of 4×EDTA at 40 mM (final concentration: 10 mM) was added to each well. After the plate was incubated for 5 min at room temperature, 5 μL of 4× detection reagent at 8 nM (final concentration: 2 nM, Eu-anti-phospho-tyrosine antibody, PerkinElmer) was added to each well. After being incubated at room temperature for 1 h, the plate was read using a PerkinElmer Envision multi-mode microplate reader (excitation: 320 nm, emission: 665 nm), and IC50 was calculated by four-parameter fitting.

For assay [2], the target named is Epidermal growth factor receptor [T790M,C797S,L858R] (UniProt P00533, C797S/L858R/T790M). The assay can be described thus: Inhibitory Activity for EGFR (L858R/T790M/C797S) Kinase. The procedure: as §1, with “(L858R/T790M/C797S, BPS)” for “(L858R/T790M, Carna)”, “0.00167” for “0.004175”, “0.001” for “0.0025”
Sequence of Epidermal growth factor receptor [T790M,C797S,L858R] (P00533 25-1210 T790M/C797S/L858R limits assumed): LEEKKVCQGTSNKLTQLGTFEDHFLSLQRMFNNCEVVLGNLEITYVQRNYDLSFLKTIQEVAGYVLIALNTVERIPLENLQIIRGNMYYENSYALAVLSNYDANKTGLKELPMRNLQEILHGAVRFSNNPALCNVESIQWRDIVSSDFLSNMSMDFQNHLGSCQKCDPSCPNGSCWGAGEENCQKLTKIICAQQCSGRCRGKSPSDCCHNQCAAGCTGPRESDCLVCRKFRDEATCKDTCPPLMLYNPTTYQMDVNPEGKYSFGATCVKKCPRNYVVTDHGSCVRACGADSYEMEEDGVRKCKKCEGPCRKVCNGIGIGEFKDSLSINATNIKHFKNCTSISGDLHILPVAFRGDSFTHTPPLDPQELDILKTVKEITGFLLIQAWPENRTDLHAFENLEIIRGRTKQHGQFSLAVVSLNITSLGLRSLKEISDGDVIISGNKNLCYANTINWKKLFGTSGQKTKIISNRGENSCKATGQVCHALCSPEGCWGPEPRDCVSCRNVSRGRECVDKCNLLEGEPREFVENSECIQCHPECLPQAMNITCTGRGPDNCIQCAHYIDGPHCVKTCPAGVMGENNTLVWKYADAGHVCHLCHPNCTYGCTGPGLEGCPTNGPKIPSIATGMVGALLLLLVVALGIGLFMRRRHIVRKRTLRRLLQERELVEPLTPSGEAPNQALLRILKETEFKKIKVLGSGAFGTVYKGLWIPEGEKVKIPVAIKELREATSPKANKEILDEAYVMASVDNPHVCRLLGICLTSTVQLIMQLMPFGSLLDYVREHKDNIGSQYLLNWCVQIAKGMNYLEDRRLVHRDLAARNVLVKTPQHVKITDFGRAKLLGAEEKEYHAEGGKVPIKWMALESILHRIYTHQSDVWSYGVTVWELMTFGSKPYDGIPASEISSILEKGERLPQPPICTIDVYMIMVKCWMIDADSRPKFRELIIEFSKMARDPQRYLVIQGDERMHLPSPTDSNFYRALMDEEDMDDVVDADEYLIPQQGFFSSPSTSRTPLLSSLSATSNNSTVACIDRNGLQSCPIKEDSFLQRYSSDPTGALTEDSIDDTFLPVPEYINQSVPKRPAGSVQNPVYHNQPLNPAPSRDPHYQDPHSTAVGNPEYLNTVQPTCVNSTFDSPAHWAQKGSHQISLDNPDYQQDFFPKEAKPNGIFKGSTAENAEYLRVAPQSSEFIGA
In assay [3] the target is Epidermal growth factor receptor (Homo sapiens, UniProt P00533). The experiment in a line: Inhibitory Activity for EGFR (WT) Kinase. The method, then:
A 50 ng/μL EGFR (WT, Carna) stock solution was diluted with a kinase buffer (50 mM HEPES, 10 mM MgCl2, 2 mM DTT, 1 mM EGTA, 0.01% Tween 20), and 6 μL of 1.67× working solution at 0.005 ng/μL (final concentration: 0.003 ng/μL) was added to each well. Different compounds dissolved in DMSO were added to the wells using a nanoliter pipettor, resulting in the final concentrations of the compounds of 100 nM to 0.0244 nM (4-fold gradient for 7 concentrations in total), and blank control wells (without enzyme) and negative control wells (with enzyme, plus vehicle DMSO) were set, 2 replicate wells for each concentration. After enzyme was reacted with the compound or vehicle for 30 min, 5×ATP at 25 μM (final concentration: 5 μM, Sigma) prepared with a kinase buffer was mixed with 5× substrate at 0.5 μM (final concentration: 0.1 μM, ULight-poly GT, PerkinElmer) at a ratio of 1:1 (v:v), and the mixture was added to each well at 4 μL/well. After being sealed with a film, the plate was incubated at room temperature for 2 h, and then 5 μL of 4×EDTA at 40 mM (final concentration: 10 mM) was added to each well. After the plate was incubated for 5 min at room temperature, 5 μL of 4× detection reagent at 8 nM (final concentration: 2 nM, Eu-anti-phospho-tyrosine antibody, PerkinElmer) was added to each well.

Assay [4] addresses Epidermal growth factor receptor [T790M,L858R] (Homo sapiens, UniProt P00533, L858R/T790M). The assay can be described thus: Inhibitory Activity for EGFR (L858R/T790M) Kinase. The procedure: as §1

Sequence of Epidermal growth factor receptor (P00533 whole entry): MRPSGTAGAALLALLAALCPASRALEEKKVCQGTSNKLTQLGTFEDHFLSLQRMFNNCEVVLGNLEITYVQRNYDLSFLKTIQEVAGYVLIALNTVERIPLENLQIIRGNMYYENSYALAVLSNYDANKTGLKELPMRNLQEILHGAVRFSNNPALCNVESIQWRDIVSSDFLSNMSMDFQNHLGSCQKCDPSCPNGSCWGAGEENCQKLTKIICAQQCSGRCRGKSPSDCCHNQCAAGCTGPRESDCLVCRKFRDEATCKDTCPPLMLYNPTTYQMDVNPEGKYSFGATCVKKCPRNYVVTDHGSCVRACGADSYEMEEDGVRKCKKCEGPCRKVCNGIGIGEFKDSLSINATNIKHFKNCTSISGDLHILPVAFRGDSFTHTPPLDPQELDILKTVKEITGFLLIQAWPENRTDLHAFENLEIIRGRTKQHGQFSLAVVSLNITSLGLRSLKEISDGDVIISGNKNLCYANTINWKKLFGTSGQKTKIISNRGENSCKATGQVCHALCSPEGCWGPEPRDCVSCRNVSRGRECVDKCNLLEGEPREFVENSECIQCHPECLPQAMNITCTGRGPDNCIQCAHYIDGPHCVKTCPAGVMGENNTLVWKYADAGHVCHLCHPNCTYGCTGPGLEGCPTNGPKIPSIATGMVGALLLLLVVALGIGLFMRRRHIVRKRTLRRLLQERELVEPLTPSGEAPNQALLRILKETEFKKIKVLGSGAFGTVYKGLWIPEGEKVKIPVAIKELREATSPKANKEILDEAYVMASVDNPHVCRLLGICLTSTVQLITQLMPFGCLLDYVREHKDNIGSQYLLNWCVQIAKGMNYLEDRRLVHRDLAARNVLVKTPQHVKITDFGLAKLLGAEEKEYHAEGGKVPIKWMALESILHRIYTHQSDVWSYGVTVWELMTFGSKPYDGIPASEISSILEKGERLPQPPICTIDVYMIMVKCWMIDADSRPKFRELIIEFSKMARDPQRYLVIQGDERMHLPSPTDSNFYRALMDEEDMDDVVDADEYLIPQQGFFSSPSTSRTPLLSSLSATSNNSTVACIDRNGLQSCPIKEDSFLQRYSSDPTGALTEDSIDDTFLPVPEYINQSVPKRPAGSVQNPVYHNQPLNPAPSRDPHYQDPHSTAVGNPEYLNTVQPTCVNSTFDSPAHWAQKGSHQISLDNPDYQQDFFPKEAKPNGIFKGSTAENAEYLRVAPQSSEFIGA
Sequence of Epidermal growth factor receptor (EGFR)(L858R)(T790M) (P00533 25-1210 T790M/L858R limits assumed): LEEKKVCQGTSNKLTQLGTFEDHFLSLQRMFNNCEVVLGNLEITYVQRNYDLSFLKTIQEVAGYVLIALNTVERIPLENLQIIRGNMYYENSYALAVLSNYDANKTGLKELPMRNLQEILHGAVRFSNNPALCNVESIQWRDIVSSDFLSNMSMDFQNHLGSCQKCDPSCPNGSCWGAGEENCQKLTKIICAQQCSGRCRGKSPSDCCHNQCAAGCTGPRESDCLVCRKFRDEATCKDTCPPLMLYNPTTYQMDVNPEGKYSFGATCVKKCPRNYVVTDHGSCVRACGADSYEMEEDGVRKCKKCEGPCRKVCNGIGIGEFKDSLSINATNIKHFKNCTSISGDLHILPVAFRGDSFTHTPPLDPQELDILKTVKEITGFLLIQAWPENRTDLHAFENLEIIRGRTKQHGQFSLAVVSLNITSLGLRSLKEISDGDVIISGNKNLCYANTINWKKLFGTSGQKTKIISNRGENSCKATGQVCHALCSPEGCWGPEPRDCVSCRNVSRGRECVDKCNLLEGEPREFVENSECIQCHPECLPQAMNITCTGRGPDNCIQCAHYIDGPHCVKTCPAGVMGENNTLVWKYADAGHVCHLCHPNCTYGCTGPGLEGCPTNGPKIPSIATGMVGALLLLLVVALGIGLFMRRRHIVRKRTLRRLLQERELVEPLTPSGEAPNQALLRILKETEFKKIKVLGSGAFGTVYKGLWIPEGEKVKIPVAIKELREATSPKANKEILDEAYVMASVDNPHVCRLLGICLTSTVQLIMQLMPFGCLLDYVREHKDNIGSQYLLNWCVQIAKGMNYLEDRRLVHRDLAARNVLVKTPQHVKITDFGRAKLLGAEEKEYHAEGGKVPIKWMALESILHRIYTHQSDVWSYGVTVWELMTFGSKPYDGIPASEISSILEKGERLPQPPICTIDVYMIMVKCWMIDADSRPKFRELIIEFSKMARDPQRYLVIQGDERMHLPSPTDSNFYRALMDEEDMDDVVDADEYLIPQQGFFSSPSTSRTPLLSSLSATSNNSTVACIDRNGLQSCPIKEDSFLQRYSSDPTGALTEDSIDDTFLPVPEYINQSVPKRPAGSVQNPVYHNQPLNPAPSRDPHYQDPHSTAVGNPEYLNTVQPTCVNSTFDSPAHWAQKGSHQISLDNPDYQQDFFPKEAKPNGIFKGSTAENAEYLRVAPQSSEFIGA
Sequence of Epidermal growth factor receptor [T790M,L858R] (P00533 25-1210 T790M/L858R limits assumed): as above

On to `Cc1cc2cc(n1)-c1cnn(C)c1OCCC[C@@H](C1CC1)CN1/C(=N/C2=O)Nc2cc(NC3COC3(C)C)ccc21` (stereo not given in full) [US20250034165, Example 30], for which the pIC50 in assay [1] is 9.89; in assay [2], 9.92; in assay [3], 8.55.

Take `Cc1cc2cc(n1)-c1cnn(C)c1OCCC[C@@H](C1CC1)CN1/C(=N/C2=O)Nc2cc(NC3C(C)(C)OC3(C)C)ccc21` [US20250034165, Example 31]: the pIC50 in assay [1] was 10.42; in assay [2], 10.38; in assay [3] it was 8.66.

In the case of `Cc1cc2cc(n1)-c1cnn(C)c1OCCC[C@@H](C1CC1)CN1/C(=N/C2=O)Nc2cc(NC3CNC3)ccc21` [US20250034165, Example 32], the pIC50 was 10.74 in assay [1], 10.54 in assay [2] and 9.47 in assay [3].

For `Cc1cc2cc(n1)-c1cnn(C)c1OCCC[C@@H](C1CC1)CN1/C(=N/C2=O)Nc2cc(NCC3COC3)ccc21` [US20250034165, Example 36], the figures for the pIC50 in assay [1], in assay [2] and in assay [3] were 10.48, 10.46 and 8.82, respectively.

For `Cc1cc2cc(n1)-c1cnn(C)c1OCCC[C@@H](C1CC1)CN1/C(=N/C2=O)Nc2cc(NC(C)C3COC3)ccc21` (stereo not given in full) [US20250034165, Example 37], the pIC50 in assay [1] was 10.57; in assay [2], 10.43; in assay [3] it was 8.85.

On to `Cc1cc2cc(n1)-c1cnn(C)c1OCCC[C@@H](C1CC1)CN1/C(=N/C2=O)Nc2cc(NCC3(C)COC3)ccc21` [US20250034165, Example 40], for which the pIC50 was 10.57 in assay [1], 10.52 in assay [2] and 8.80 in assay [3].

With `Cc1cc2cc(n1)-c1cnn(C)c1OCCC[C@@H](C1CC1)CN1/C(=N/C2=O)Nc2cc(N(C)C3COC3)ccc21` [US20250034165, Example 41], the pIC50 in assay [1] is 10.74; in assay [2] it was 10.68; in assay [3], 8.96.

Take `Cc1cc2cc(n1)-c1cnn(C)c1OCCC[C@@H](C1CC1)CN1/C(=N/C2=O)Nc2cc(NCCN(C)C)ccc21` [US20250034165, Example 42]: the pIC50 in assay [1] was 10.89; in assay [2] it was 10.96; in assay [3] it was 9.17.

For the compound `Cc1cc2cc(n1)-c1cnn(C)c1OCCC[C@@H](C1CC1)CN1/C(=N/C2=O)Nc2cc(NCCCN(C)C)ccc21` [US20250034165, Example 44], the pIC50 in assay [1] is 11.00; in assay [2], 11.15; in assay [3] it was 9.44.

Turning to `Cc1cc2cc(n1)-c1cnn(C)c1OCCC[C@@H](C1CC1)CN1/C(=N/C2=O)Nc2ccc(N(C)CCN(C)C)cc21` [US20250034165, Example 45], the pIC50 in assay [1] was 10.70; in assay [2], 10.62; in assay [3] it was 9.02.

Turning to `CCN1CCC(Nc2ccc3c(c2)N/C2=N\C(=O)c4cc(C)nc(c4)-c4cnn(C)c4OCCC[C@@H](C4CC4)CN23)CC1` [US20250034165, Example 48], the results for the pIC50 in assay [4] and in assay [3] were 10.64 and 9.29, respectively.

Consider `Cc1cc2cc(n1)-c1cnn(C)c1OCCC[C@@H](C1CC1)CN1/C(=N/C2=O)Nc2cc(NCCCCN)ccc21` [US20250034165, Example 53], for which the pIC50 in assay [1] was 10.96; in assay [2], 10.85; in assay [3], 9.14.

Regarding `Cc1cc2cc(n1)-c1cnn(C)c1OCCC[C@@H](C1CC1)CN1/C(=N/C2=O)Nc2ccc(NC3CCN(C(C)C)CC3)cc21` [US20250034165, Example 54], the pIC50 in assay [1] is 10.77; in assay [2] it was 10.60; in assay [3], 9.41.

Consider `CCN1CCC(Nc2ccc3c(c2)N2C[C@H](C4CC4)CCCOc4c(cnn4C)-c4cc(cc(C)n4)C(=O)/N=C/2N3)CC1` [US20250034165, Example 55], for which the pIC50 in assay [1] was 10.77; in assay [2], 10.66; in assay [3], 9.30.

On to `Cc1cc2cc(n1)-c1cnn(C)c1OCCC[C@@H](C1CC1)CN1/C(=N/C2=O)Nc2cc(NC(C)CN(C)C)ccc21` (stereo not given in full) [US20250034165, Example 62], for which the pIC50 in assay [1] was 10.51; in assay [2] it was 10.80; in assay [3] it was 9.11.

Take `Cc1cc2cc(n1)-c1cnn(C)c1OCCC[C@@H](C1CC1)CN1/C(=N/C2=O)Nc2cc(NCCCN3CCCC3)ccc21` [US20250034165, Example 70]: the figures for the pIC50 in assay [1], in assay [2] and in assay [3] were 10.82, 10.54 and 9.00, respectively.

Consider `Cc1cc2cc(n1)-c1cnn(C)c1OCCC[C@@H](C1CC1)CN1/C(=N/C2=O)Nc2cc(NCCN3CCCC3)ccc21` [US20250034165, Example 72], for which the pIC50 in assay [1] was 10.42; in assay [2] it was 10.68; in assay [3], 9.03.

Regarding `Cc1cc2cc(n1)-c1cnn(C)c1OCCC[C@@H](C1CC1)CN1/C(=N/C2=O)Nc2cc(NC3CCC3)ccc21` [US20250034165, Example 79], the values for the pIC50 in assay [1], in assay [2] and in assay [3] were 11.15, 9.91 and 8.21, respectively.

For `Cc1cc2cc(n1)-c1cnn(C)c1OCCC[C@@H](C1CC1)CN1/C(=N/C2=O)Nc2ccc(NCCCN3CCCCC3)cc21` [US20250034165, Example 80], the figures for the pIC50 in assay [1], in assay [2] and in assay [3] were 10.51, 10.72 and 9.25, respectively.

Regarding `Cc1cc2cc(n1)-c1cnn(C)c1OCCC[C@@H](C1CC1)CN1/C(=N/C2=O)Nc2ccc(NCCCN3CCOCC3)cc21` [US20250034165, Example 81], the pIC50 is 10.36 in assay [1], 10.57 in assay [2] and 9.17 in assay [3].

On to `Cc1cc2cc(n1)-c1cnn(C)c1OCCC[C@@H](C1CC1)CN1/C(=N/C2=O)Nc2ccc(NCCN3CCCCC3)cc21` [US20250034165, Example 83], for which the figures for the pIC50 in assay [1], in assay [2] and in assay [3] were 10.40, 10.64 and 9.10, respectively.

On to `Cc1cc2cc(n1)-c1cnn(C)c1OCCC[C@@H](C1CC1)CN1/C(=N/C2=O)Nc2ccc(NC3CCCC3)cc21` [US20250034165, Example 87], for which the pIC50 in assay [1] is 10.38; in assay [2], 9.65; in assay [3], 7.89.

In the case of `[2H]C([2H])([2H])N(C[C@H](C)Nc1ccc2c(c1)N1C[C@H](C3CC3)CCCOc3c(cnn3C)-c3cc(cc(C)n3)C(=O)/N=C\1N2)C([2H])([2H])[2H]` [US20250034165, Example 123], the pIC50 in assay [4] is 9.80.

As for `[2H]C([2H])([2H])N(C[C@H](C)Nc1ccc2c(c1)N/C1=N/C(=O)c3cc(C)nc(c3)-c3cnn(C)c3OCCC[C@@H](C3CC3)CN12)C([2H])([2H])[2H]` [US20250034165, Example 124], the pIC50 in assay [4] was 9.66; in assay [2] it was 9.80.

Regarding `[2H]C([2H])([2H])N(C[C@@H](C)Nc1ccc2c(c1)N/C1=N/C(=O)c3cc(C)nc(c3)-c3cnn(C)c3OCCC[C@@H](C3CC3)CN12)C([2H])([2H])[2H]` [US20250034165, Example 146], the pIC50 in assay [4] is 9.28; in assay [2] it was 9.12.
